Paper PMC5560858, “A lectin receptor kinase as a potential sensor for extracellular nicotinamide adenine dinucleotide in Arabidopsis thaliana” (eLife, 2017)

Target: T1, LecRK-I.8 (lectin receptor kinase-I.8, At5g60280) (Arabidopsis thaliana, UniProt Q9LSR9)
T1 construct: gene LECRK18; extracellular lectin domain (amino acids 23 to 283) fused to GFP (eLecRK-I.8-GFP)
Assay: […]-NAD+ radioligand saturation binding to immunoprecipitated eLecRK-I.8-GFP; also competition, and binding to recombinant MBP-eLecRK-I.[…]

T1 sequence (Q9LSR9 23-283): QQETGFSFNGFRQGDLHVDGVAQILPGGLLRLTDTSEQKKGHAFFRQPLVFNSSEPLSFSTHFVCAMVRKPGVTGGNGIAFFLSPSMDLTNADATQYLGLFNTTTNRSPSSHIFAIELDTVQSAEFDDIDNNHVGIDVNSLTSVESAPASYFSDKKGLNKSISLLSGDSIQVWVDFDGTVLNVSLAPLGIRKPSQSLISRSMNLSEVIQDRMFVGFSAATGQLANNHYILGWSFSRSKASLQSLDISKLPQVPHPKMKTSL

- Kd: 437 ± 105 nM
Compound: NC(=O)c1ccc[n+]([C@@H]2O[C@H](COP(=O)([O-])OP(=O)(O)OC[C@H]3O[C@@H](n4cnc5c(N)ncnc54)[C@H](O)[C@@H]3O)[C@@H](O)[C@H]2O)c1 [NAD+]
